One may read the melting point as the temperature of the solid-liquid transition.

Here are results for 41 compounds from patent US20090270443A1, “1-AMINO IMIDAZO-CONTAINING COMPOUNDS AND METHODS” (priority 2004, published 2009).

Each structure is given as a SMILES string.

The compound `CCOCc1nc2c(N)nc(C)c(C)c2n1NC(C)C` [Example 1, 2-(Ethoxymethyl)-N^1-isopropyl-6,7-dimethyl-1H-imidazo[4,5-c]pyridine-1,4-diamine] yielded a melting point of 110 to 120 °C.

The compound `CCOCc1nc2c(N)ncc(C)c2n1NC(C)C` [Example 2, 2-(Ethoxymethyl)-N^1-isopropyl-7-methyl-1H-imidazo[4,5-c]pyridine-1,4-diamine] had a melting point of 119 to 121 °C.

`CCOCc1nc2c(N)nc(C)cc2n1NC(C)C` [Example 3, 2-(Ethoxymethyl)-N^1-isopropyl-6-methyl-1H-imidazo[4,5-c]pyridine-1,4-diamine]: the melting point is 139 to 141 °C.

In turn, `CCOCc1nc2c(N)nc3cccnc3c2n1NC(C)C` [Example 4, 2-(Ethoxymethyl)-N^1-isopropyl-1H-imidazo[4,5-c][1,5]naphthyridine-1,4-diamine] showed a melting point of 150 to 152 °C.

For the compound `CC(C)Nn1c(CO)nc2c(N)nc3cccnc3c21` [Example 6, [4-Amino-1-(isopropylamino)-1H-imidazo[4,5-c][1,5]naphthyridin-2-yl]methanol], the melting point is 242 to 243 °C.

The compound `CCc1nc2c(N)nc3cccnc3c2n1NC(C)C` [Example 7, 2-Ethyl-N^1-isopropyl-1H-imidazo[4,5-c][1,5]naphthyridine-1,4-diamine] came in with a melting point of 212 to 213 °C.

Compound `CCc1nc2c(N)nc3cccnc3c2n1NCCCNS(C)(=O)=O` [Example 8, N-{3-[(4-amino-2-ethyl-1H-imidazo[4,5-c][1,5]naphthyridin-1-yl)amino]propyl}methanesulfonamide] displayed a melting point of 176 to 178 °C.

In turn, `CCOCc1nc2c(N)nc(C)c(C)c2n1N(C)C` [Example 9, 2-(Ethoxymethyl)-N^1,N^1,6,7-tetramethyl-1H-imidazo[4,5-c]pyridine-1,4-diamine] came in with a melting point of 170 to 171 °C.

In turn, `Cc1nc(N)c2ncn(N(C)C)c2c1C` [Example 10, N^1,N^1,6,7-Tetramethyl-1H-imidazo[4,5-c]pyridine-1,4-diamine] came in with a melting point of 205 to 207 °C.

As for `Cc1nc(N)c2nc(C)n(NC(C)C)c2c1C` [Example 11, N^1-Isopropyl-2,6,7-trimethyl-1H-imidazo[4,5-c]pyridine-1,4-diamine], the melting point was in the range of 203 to 205 °C.

On to `Cc1nc(N)c2nc(CO)n(NC(C)C)c2c1C` [Example 12, (4-Amino-1-isopropylamino-6,7-dimethyl-1H-imidazo[4,5-c]pyridin-2-yl)methanol], for which the melting point lay within 257 to 259 °C.

Compound `CCOCc1nc2c(N)nc(C)c(C)c2n1NCCCNS(C)(=O)=O` [Example 13, N-{3-[(4-Amino-2-ethoxymethyl-6,7-dimethyl-1H-imidazo[4,5-c]pyridin-1-yl)amino]propyl}methanesulfonamide] displayed a melting point of 147 to 149 °C.

On to `CCOCc1nc2c(N)nc(C)c(C)c2n1NCCCNC(=O)C1CCCCC1` [Example 14, N-{3-[(4-Amino-2-ethoxymethyl-6,7-dimethyl-1H-imidazo[4,5-c]pyridin-1-yl)amino]propyl}cyclohexanecarboxamide], for which the melting point lay within 166 to 168 °C.

The compound `Cc1nc(N)c2nc(C)n(NCCCNS(C)(=O)=O)c2c1C` [Example 15, N-{3-[(4-Amino-2,6,7-trimethyl-1H-imidazo[4,5-c]pyridin 1-yl)amino]propyl}methanesulfonamide] came in with a melting point of 215 to 217 °C.

The compound `CCOCc1nc2c(N)nc(C)c(C)c2n1NCCCNC(=O)NC(C)C` [Example 16, 1-{3-[(4-Amino-2-ethoxymethyl-6,7-dimethyl-1H-imidazo[4,5-c]pyridin-1-yl)amino]propyl}-3-isopropylurea] gave a melting point of 203 to 205 °C.

`CCOCc1nc2c(N)nc(C)c(C)c2n1NC1CCCCC1` [Example 17, N^1-Cyclohexyl-2-ethoxymethyl-6,7-dimethyl-1H-imidazo[4,5-c]pyridine-1,4-diamine] showed a melting point of 108 to 110 °C.

`Cc1nc(N)c2nc(CO)n(NC3CCCCC3)c2c1C` [Example 18, (4-Amino-1-cyclohexylamino-6,7-dimethyl-1H-imidazo[4,5-c]pyridin-2-yl)methanol] registered a melting point above 250 °C.

For `CCOCc1nc2c(N)nc(C)c(C)c2n1NCc1cccnc1` [Example 19, 2-Ethoxymethyl-6,7-dimethyl-N^1-(pyridin-3-yl)methyl-1H-imidazo[4,5-c]pyridine-1,4-diamine], the melting point fell in the range of 147 to 149 °C.

For the compound `Cc1nc(N)c2nc(CO)n(NCc3cccnc3)c2c1C` [Example 20, [4-Amino-6,7-dimethyl-1-(pyridin-3-yl)methylamino-1H-imidazo[4,5-c]pyridin-2-yl]methanol], the melting point is 258 to 260 °C.

The compound `CCOCc1nc2c(N)nc(C)c(C)c2n1NCc1ccccc1` [Example 21, N^1-Benzyl-2-ethoxymethyl-6,7-dimethyl-1H-imidazo[4,5-c]pyridine-1,4-diamine] came in with a melting point of 149 to 151 °C.

Compound `Cc1nc(N)c2nc(CO)n(NCc3ccccc3)c2c1C` [Example 22, (4-Amino-1-benzylamino-6,7-dimethyl-1H-imidazo[4,5-c]pyridin-2-yl)methanol] showed a melting point above 250 °C.

Turning to `CCOCc1nc2c(N)nc(C)c(C)c2n1NC1CCC1` [Example 23, N^1-Cyclobutyl-2-ethoxymethyl-6,7-dimethyl-1H-imidazo[4,5-c]pyridine-1,4-diamine], the melting point fell in the range of 139 to 141 °C.

`Cc1nc(N)c2nc(CO)n(NC3CCC3)c2c1C` [Example 24, (4-Amino-1-cyclobutylamino-6,7-dimethyl-1H-imidazo[4,5-c]pyridin-2-yl)methanol]: the melting point is 211 to 213 °C.

In turn, `CCOCc1nc2c(N)nc(C)c(C)c2n1NC1CCOCC1` [Example 25, 2-Ethoxymethyl-6,7-dimethyl-N^1-(tetrahydropyran-4-yl)-1H-imidazo[4,5-c]pyridine-1,4-diamine] registered a melting point of 120 to 122 °C.

Compound `Cc1nc(N)c2nc(CO)n(NC3CCOCC3)c2c1C` [Example 26, [4-Amino-6,7-dimethyl-1-(tetrahydropyran-4-yl)amino-1H-imidazo[4,5-c]pyridin-2-yl]methanol] gave a melting point above 250 °C.

`CCOCc1nc2cnc(C)c(C)c2n1NC1CCOCC1` [Example 27, 2-Ethoxymethyl-6,7-dimethyl-N-(tetrahydropyranyl)-1H-imidazo[4,5-c]pyridin-1-amine] came in with a melting point of 94 to 97 °C.

Take `Cc1nc(N)c2nc(C)n(NC3CCCCC3)c2c1C` [Example 28, N^1-Cyclohexyl-2,6,7-trimethyl-1H-imidazo[4,5-c]pyridine-1,4-diamine]: the melting point is 242 to 244 °C.

As to `CCc1nc2c(N)nc(C)c(C)c2n1NC1CCCCC1` [Example 29, N^1-Cyclohexyl-2-ethyl-6,7-dimethyl-1H-imidazo[4,5-c]pyridine-1,4-diamine], the melting point lay within 190 to 192 °C.

For `Cc1nc(N)c2ncn(NC3CCCCC3)c2c1C` [Example 30, N^1-Cyclohexyl-6,7-dimethyl-1H-imidazo[4,5-c]pyridine-1,4-diamine], the melting point was in the range of 259 to 261 °C.

Regarding `CCCCc1nc2c(N)nc(C)c(C)c2n1NC1CCCCC1` [Example 31, 2-Butyl-N^1-cyclohexyl-6,7-dimethyl-1H-imidazo[4,5-c]pyridine-1,4-diamine], the melting point lay within 160 to 162 °C.

As to `Cc1nc(N)c2nc(C)n(NC3CCOCC3)c2c1C` [Example 32, 2,6,7-Trimethyl-N^1-(tetrahydropyran-4-yl)-1H-imidazo[4,5-c]pyridine-1,4-diamine], the melting point is 240 to 242 °C.

Regarding `CCCc1nc2c(N)nc(C)c(C)c2n1NC1CCCCC1` [Example 33, N^1-Cyclohexyl-6,7-dimethyl-2-propyl-1H-imidazo[4,5-c]pyridine-1,4-diamine], the melting point was in the range of 177 to 179 °C.

For `CCOCc1nc2c(N)nc3cccnc3c2n1NCc1ccccc1` [Example 34, N^1-Benzyl-2-ethxoymethyl-1H-imidazo[4,5-c][1,5]naphthyridine-1,4-diamine], the melting point was 169 to 171 °C.

With `Nc1nc2cccnc2c2c1nc(CO)n2NCc1ccccc1` [Example 35, (4-Amino-1-benzylamino-1H-imidazo[4,5-c][1,5]naphthyridin-2-yl)methanol], the melting point was 237 to 239 °C.

Take `CCOCc1nc2cnc3cccnc3c2n1NC1CCOCC1` [Example 36, 2-Ethxoymethyl-N-(tetrahydro-2H-pyran-4-yl)-1H-imidazo[4,5-c][1,5]naphthyridin-1-amine]: the melting point is 130 to 133 °C.

For `CCOCc1nc2c(N)nc3cccnc3c2n1NC1CCOCC1` [Example 37, 2-Ethxoymethyl-N^1-(tetrahydro-2H-pyran-4-yl)-1H-imidazo[4,5-c][1,5]naphthyridine-1,4-diamine], the melting point lay within 191 to 193 °C.

In turn, `OCc1nc2cnc3cccnc3c2n1NC1CCOCC1` [Example 38, [1-(Tetrahydro-2H-pyran-4-yl)amino-1H-imidazo[4,5-c][1,5]naphthyridin-2-yl]methanol] showed a melting point of 203 to 205 °C.

As for `CCOCc1nc2c(N)nc(C)c(C)c2n1NCCCS(C)(=O)=O` [Example 39, 2-(Ethoxymethyl)-6,7-dimethyl-N^1-[3-(methylsulfonyl)propyl]-1H-imidazo[4,5-c]pyridine-1,4-diamine], the melting point lay within 150 to 155 °C.

On to `CCOCc1nc2c(N)nc(C)c(C)c2n1NC1CCN(S(C)(=O)=O)CC1` [Example 40, 2-(Ethoxymethyl)-6,7-dimethyl-N^1-[1-(methylsulfonyl)piperidin-4-yl]-1H-imidazo[4,5-c]pyridine-1,4-diamine], for which the melting point lay in the range of 127 to 131 °C.

Compound `CCOCc1nc2c(N)nc(C)c(C)c2n1NCc1ccc(Cl)c(Cl)c1` [Example 45, N^1-(3,4-Dichlorobenzyl)-2-ethoxymethyl-6,7-dimethyl-1H-imidazo[4,5-c]pyridine-1,4-diamine] had a melting point of 186 to 188 °C.

As for `CCOCc1nc2c(N)nc(C)c(C)c2n1NC1CCCC1` [Example 46, N^1-Cyclopentyl-2-ethoxymethyl-6,7-dimethyl-1H-imidazo[4,5-c]pyridine-1,4-diamine], the melting point fell in the range of 130 to 132 °C.
